{
  "source": "patent US9694045B2",
  "about": "“Pharmaceutical composition for preventing or treating inflammatory diseases comprising trachelospermi caulis extract and paeonia suffruticosa andrews extract, and method for preparing the same” (SINIL PHARMACEUTICAL CO., LTD., priority 2010, dated 2017)",
  "type_in_all_cases": "in vivo",
  "key": {"[1]": {"test_system": "splenocytes of arthritis-induced mice", "assay": "Splenocyte proliferation in arthritis-induced mice (BrdU ELISA)", "settings": "Mus musculus, positive control group (bucillamine 300 mg/kg oral)", "protocol": "Bovine type II collagen and adjuvant were separately emulsified, and each emulsion was subcutanesously injected at a dose of 100 μg to the tail. Three weeks later, a booster was achieved by the intraperitoneal injection of 100 μg of bovine type II collagen to induce arthritis. Immediately after the induction, drugs were administered for 21 days and their inhibitory activity against arthritis was measured. The mice were orally administered with suspensions of indomethacin (1 mg/kg), meloxicam (4 mg/kg), bucillamine (300 mg/kg), and the mixture of extracts from Trachelospermi Caulis and Paeonia Suffruticosa Andrews (SI-000902), every day. For comparison, a normal group (arthritis not induced) and a control (administered with vehicle) were employed. The extract mixture (solid extract, soft extract) was dispersed at a concentration of 20, 50, 100, 200 and 400 mg/kg in a 1% carboxymethyl-cellulose sodium solution before the oral administration. Severity of edema was measured in the four feet of each mouse by blind test with the naked eye every three days and evaluated as grades 0 to 4. The spleen was aseptically excised from arthritis-induced mice, minced and filtered through a filter to separate and collect only the cells. […] After incubation, the cells were fixed, and suppressive activity against splenocyte proliferation was determined using a BrdU ELISA cell proliferation assay kit (Roche)."}, "IFN-γ": {"test_system": "IFN-γ", "assay": "IFN-γ production of splenocytes of arthritis-induced mice (ELISA)", "settings": "positive control group (bucillamine 300 mg/kg oral)", "protocol": "(§1) Bovine type II collagen and adjuvant were separately emulsified, and each emulsion was subcutanesously injected at a dose of 100 μg to the tail. Three weeks later, a booster was achieved by the intraperitoneal injection of 100 μg of bovine type II collagen to induce arthritis. Immediately after the induction, drugs were administered for 21 days and their inhibitory activity against arthritis was measured. The mice were orally administered with suspensions of indomethacin (1 mg/kg), meloxicam (4 mg/kg), bucillamine (300 mg/kg), and the mixture of extracts from Trachelospermi Caulis and Paeonia Suffruticosa Andrews (SI-000902), every day. For comparison, a normal group (arthritis not induced) and a control (administered with vehicle) were employed. The extract mixture (solid extract, soft extract) was dispersed at a concentration of 20, 50, 100, 200 and 400 mg/kg in a 1% carboxymethyl-cellulose sodium solution before the oral administration. Severity of edema was measured in the four feet of each mouse by blind test with the naked eye every three days and evaluated as grades 0 to 4. The spleen was aseptically excised from arthritis-induced mice and used to give a cell suspension. […] The level of the cytokines IFN-γ and IL-2 in the medium was measured using an ELISA kit (R&D systems) to examine the inhibitory effect of the extract mixture on the cytokines."}, "IL-2": {"test_system": "IL-2", "assay": "IL-2 production of splenocytes of arthritis-induced mice (ELISA)", "settings": "positive control group (bucillamine 300 mg/kg oral)", "protocol": "as §1"}},
  "data": [
    {"smiles": "CC(C)(S)C(=O)N[C@@H](CS)C(=O)O", "note": "[bucillamine]", "values": [
      {"measurement": "inhibition at 300 mg/kg", "setting": "[1]", "result": 51.1, "unit": "%"},
      {"measurement": "suppression of IFN-γ", "setting": "IFN-γ", "result": 88.5, "unit": "%"},
      {"measurement": "suppression of IL-2", "setting": "IL-2", "result": 39.1, "unit": "%"}
    ]}
  ]
}
